Measured values as given in patent US7074789B2, “Kinase inhibitors” (Amgen Inc., priority 1999, dated 2006).

Key:
Type in all cases: biochemical
Fyn = biological target: T1, Fyn (Homo sapiens, UniProt P06241); assay: Kinase inhibition assay (33P transfer), Fyn; settings: read-out: Fyn-1
T1 construct: Kinases are expressed as either kinase domains or full length constructs; made in house
How it was run: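 Recombinant kinase domains or full-length GST- or His-tagged constructs, from E. coli or baculovirus/High Five cells, sometimes with regulatory polypeptides. Transfer of 33P from ATP to plate-bound poly(Glu,Tyr) 4:1 or poly(Arg,Ser) 3:1 counted by liquid scintillation after phosphoric acid wash; IC50 is the concentration halving incorporation.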

Kdr = biological target: T2, Kdr (Homo sapiens, UniProt P35968); assay: Kinase inhibition assay (33P transfer), Kdr; settings: Table 3; read-out: KDR-1
T2 construct: Kinases are expressed as either kinase domains or full length constructs; made in house
T2 sequence (P35968 20-1356, species assumed): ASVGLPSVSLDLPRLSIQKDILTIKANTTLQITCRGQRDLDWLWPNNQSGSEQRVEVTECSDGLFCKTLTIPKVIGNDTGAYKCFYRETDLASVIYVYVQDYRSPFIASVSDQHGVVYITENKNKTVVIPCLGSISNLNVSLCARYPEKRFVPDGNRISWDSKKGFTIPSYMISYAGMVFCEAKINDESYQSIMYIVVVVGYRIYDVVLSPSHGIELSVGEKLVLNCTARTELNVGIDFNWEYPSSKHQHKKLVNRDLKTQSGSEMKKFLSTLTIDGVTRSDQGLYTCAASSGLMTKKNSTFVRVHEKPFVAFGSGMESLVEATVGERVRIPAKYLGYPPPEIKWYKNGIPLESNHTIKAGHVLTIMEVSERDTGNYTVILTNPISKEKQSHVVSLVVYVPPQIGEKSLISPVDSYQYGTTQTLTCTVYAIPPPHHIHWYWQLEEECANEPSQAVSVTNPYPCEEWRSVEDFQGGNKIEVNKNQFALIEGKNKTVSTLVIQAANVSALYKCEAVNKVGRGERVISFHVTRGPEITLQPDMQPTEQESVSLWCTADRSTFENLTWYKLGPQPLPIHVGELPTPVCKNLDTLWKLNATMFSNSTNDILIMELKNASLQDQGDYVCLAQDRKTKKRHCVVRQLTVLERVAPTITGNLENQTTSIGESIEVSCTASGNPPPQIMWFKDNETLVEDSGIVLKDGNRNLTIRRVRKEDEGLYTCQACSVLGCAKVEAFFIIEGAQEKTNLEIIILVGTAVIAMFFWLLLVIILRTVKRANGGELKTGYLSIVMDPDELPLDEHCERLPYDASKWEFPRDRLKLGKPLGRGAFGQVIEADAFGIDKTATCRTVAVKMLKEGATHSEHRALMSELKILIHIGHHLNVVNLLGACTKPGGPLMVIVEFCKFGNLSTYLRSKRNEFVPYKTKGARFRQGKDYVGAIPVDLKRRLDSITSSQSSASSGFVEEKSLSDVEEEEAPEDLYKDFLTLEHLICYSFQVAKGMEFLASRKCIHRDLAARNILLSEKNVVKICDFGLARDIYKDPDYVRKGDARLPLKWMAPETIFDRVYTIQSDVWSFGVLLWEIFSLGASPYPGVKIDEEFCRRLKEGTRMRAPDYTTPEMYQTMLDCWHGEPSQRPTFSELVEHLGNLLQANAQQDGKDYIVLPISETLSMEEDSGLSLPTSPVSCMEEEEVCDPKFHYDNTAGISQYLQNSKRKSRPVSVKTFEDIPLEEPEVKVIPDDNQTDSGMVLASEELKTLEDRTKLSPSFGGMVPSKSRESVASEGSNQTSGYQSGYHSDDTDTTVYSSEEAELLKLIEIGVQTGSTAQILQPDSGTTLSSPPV
How it was run: (§1)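 Kinase domains or full-length kinases, GST- or His-tagged and expressed in E. coli or baculovirus/High Five cells, transferred 33PO4 from ATP onto plate-bound poly(Glu,Tyr) 4:1 or poly(Arg,Ser) 3:1. After incubation, plates were washed with 0.5% phosphoric acid and counted by liquid scintillation.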

PDGFRB = biological target: T3, PDGFRB (Homo sapiens, UniProt P09619); assay: Kinase inhibition assay (33P transfer), PDGFRB; settings: read-out: PDGFRB-1
T3 construct: Kinases are expressed as either kinase domains or full length constructs; made in house
T3 sequence (P09619 33-1106, species assumed): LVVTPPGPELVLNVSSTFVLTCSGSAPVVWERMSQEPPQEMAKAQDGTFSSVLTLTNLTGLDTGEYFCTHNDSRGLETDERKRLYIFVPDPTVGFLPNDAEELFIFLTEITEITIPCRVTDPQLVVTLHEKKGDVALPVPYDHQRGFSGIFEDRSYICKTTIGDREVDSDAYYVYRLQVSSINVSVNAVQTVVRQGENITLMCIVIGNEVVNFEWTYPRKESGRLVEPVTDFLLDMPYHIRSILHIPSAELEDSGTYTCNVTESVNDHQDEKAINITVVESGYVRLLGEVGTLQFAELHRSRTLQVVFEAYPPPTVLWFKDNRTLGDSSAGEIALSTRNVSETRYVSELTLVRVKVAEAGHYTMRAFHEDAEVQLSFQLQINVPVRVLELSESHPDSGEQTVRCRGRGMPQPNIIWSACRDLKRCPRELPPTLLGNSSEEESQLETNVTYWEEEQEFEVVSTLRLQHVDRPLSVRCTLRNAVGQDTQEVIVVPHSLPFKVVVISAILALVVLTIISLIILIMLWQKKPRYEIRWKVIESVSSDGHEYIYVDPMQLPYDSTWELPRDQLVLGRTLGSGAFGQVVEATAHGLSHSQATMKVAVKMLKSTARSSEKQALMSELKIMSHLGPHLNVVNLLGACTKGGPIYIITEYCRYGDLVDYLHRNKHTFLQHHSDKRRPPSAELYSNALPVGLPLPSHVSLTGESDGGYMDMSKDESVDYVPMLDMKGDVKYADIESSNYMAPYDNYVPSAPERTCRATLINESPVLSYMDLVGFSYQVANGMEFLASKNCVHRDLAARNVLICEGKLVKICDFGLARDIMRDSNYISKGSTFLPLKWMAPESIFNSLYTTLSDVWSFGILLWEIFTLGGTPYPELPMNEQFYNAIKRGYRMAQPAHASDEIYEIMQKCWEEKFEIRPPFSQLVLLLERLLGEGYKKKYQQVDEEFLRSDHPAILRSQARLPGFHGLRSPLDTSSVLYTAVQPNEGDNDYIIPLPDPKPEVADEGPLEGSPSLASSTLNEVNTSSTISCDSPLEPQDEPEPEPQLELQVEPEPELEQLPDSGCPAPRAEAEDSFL

EPHB4 = biological target: T4, EPHB4 (Homo sapiens, UniProt P54760); assay: Kinase inhibition assay (33P transfer), EPHB4; settings: read-out: EPHB4-1
T4 construct: Kinases are expressed as either kinase domains or full length constructs; made in house
T4 sequence (P54760 16-987): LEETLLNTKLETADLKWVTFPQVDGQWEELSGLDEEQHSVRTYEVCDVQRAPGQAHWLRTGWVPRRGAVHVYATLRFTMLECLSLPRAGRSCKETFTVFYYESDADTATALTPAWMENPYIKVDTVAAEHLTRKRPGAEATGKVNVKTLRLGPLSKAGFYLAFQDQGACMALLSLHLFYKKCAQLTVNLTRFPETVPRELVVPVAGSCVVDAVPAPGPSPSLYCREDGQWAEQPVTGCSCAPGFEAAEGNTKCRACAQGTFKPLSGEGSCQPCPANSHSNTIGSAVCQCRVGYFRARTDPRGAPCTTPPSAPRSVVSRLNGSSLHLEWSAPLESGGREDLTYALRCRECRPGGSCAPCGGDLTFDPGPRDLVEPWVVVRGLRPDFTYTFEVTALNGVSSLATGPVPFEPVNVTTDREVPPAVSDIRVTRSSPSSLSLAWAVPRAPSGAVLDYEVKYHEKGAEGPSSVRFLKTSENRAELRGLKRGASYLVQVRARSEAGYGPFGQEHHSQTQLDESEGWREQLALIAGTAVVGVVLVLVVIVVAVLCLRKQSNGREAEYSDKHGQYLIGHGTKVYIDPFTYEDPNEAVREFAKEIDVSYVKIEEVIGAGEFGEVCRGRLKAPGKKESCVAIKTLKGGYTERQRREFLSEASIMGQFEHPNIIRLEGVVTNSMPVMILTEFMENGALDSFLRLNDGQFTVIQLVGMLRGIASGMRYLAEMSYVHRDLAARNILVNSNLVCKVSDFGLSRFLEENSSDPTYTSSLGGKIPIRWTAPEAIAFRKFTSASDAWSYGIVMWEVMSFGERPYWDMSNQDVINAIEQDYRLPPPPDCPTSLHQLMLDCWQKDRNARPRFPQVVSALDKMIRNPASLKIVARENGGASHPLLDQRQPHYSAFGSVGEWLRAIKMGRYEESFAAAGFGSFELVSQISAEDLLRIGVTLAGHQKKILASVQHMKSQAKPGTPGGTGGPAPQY

Zap-70 = biological target: T5, Zap-70 (Homo sapiens, UniProt P43403); assay: Kinase inhibition assay (33P transfer), Zap-70; settings: Table 3; read-out: Zap-1
T5 construct: Kinases are expressed as either kinase domains or full length constructs; made in house
T5 sequence (P43403 1-619): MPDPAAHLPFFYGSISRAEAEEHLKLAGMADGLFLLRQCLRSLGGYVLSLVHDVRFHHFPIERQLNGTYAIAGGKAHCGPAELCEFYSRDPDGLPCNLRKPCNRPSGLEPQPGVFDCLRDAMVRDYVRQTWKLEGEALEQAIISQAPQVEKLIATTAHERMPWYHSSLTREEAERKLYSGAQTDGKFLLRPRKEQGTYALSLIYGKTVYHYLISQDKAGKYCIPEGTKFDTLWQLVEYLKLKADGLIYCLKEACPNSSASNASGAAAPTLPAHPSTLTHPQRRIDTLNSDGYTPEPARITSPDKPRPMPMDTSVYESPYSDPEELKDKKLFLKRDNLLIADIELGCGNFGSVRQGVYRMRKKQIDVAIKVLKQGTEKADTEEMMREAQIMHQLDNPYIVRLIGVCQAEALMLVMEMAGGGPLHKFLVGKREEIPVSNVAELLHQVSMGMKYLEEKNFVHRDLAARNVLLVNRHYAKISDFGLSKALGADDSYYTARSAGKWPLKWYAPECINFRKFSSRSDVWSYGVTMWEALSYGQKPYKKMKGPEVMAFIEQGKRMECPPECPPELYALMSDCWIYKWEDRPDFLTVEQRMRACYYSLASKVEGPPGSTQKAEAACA
How it was run: as §1

IGFR-1 = biological target: T6, IGFR-1 (Homo sapiens, UniProt P08069); assay: Kinase inhibition assay (33P transfer), IGFR-1; settings: Table 2, kinase inhibition class
T6 construct: Kinases are expressed as either kinase domains or full length constructs; made in house
T6 sequence (P08069 31-1367): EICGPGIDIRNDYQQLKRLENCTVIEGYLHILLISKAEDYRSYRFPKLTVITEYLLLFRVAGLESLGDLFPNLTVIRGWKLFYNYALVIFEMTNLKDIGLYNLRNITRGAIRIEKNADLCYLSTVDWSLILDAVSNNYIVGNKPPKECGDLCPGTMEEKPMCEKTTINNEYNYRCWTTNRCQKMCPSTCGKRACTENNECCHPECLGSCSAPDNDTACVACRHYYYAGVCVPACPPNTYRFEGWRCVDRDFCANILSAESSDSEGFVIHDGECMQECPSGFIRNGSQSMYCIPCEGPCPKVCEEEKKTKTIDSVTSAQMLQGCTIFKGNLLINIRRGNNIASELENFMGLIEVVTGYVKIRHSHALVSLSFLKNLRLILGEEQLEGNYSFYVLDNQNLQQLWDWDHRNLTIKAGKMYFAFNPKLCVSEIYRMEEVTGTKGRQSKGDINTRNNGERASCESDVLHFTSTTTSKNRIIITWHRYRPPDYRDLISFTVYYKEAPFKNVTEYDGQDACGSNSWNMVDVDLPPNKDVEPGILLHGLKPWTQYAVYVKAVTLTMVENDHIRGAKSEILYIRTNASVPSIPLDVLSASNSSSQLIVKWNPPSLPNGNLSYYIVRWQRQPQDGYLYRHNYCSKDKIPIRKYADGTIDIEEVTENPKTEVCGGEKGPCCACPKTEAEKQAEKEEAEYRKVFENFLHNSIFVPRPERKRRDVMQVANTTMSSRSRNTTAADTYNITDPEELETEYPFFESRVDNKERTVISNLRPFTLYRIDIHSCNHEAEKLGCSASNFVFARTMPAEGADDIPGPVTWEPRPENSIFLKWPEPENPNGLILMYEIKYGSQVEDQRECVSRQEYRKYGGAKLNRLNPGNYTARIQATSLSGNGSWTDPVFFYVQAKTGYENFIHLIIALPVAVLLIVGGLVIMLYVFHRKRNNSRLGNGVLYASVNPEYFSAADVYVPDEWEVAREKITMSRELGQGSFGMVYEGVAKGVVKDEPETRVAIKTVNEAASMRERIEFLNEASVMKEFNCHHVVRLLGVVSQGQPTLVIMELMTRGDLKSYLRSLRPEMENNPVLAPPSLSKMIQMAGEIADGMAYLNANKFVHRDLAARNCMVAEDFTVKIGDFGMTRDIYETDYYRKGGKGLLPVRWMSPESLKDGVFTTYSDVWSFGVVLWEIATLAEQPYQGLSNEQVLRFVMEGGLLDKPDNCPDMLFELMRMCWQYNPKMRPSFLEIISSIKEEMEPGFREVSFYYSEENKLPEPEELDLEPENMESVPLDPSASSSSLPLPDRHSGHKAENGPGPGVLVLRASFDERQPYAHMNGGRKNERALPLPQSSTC

T1 sequence (P06241 whole entry, species assumed, the tested form may be a part): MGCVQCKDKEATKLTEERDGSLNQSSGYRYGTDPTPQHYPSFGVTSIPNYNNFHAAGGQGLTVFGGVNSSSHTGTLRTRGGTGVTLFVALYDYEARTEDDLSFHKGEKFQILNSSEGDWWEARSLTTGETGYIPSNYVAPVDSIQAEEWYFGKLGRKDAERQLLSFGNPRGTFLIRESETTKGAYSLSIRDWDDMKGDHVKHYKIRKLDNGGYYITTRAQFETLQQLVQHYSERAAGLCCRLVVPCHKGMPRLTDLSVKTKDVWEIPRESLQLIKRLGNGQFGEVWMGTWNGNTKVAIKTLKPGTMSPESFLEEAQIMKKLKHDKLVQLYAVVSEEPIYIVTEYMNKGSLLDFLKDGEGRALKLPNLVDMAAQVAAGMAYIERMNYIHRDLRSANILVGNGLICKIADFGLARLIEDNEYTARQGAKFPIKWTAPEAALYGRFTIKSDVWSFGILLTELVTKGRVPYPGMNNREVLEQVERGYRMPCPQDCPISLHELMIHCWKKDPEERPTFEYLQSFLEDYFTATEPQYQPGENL

| Structure (SMILES) | IC50 (Fyn) [µM] | IC50 (Kdr) [µM] | IC50 (PDGFRB) [µM] | IC50 (EPHB4) [µM] | IC50 (Zap-70) [µM] | IC50 (IGFR-1) [µM] |
| --- | --- | --- | --- | --- | --- | --- |
| COc1cc(Nc2ncnc(-n3c(Nc4ccc(C(C)C)cc4)nc4ccccc43)n2)cc(OC)c1OC [Compound 388] | > 8.8 | 0.782 to 4.69 | 0.782 to 4.69 | > 8.8 | > 8.8 | > 8.8 |
| COc1cc(Nc2ncnc(Nc3ccccc3F)n2)cc(OC)c1OC [Compound 65] | > 12.1 | 1.08 to 6.46 | < 1.08 | 6.46 to 9.42 | > 12.1 | 1.08 to 6.46 |
| NC(=O)c1ccc(Nc2ncnc(-n3c(N)nc4ccccc43)n2)cc1 [Compound 396] | 1.15 to 6.93 | < 1.15 | 1.15 to 6.93 | 1.15 to 6.93 | > 13 | < 1.15 |
| COc1cc(Nc2ncnc(-n3c(Cl)nc4ccccc43)n2)cc(OC)c1OC [Compound 378] | 5.81 to 8.48 | < 0.969 | 0.969 to 5.81 | > 10.9 | > 10.9 | 0.969 to 5.81 |

The next lines start with the values.

| IC50 (Fyn) [µM] | IC50 (Kdr) [µM] | IC50 (PDGFRB) [µM] | IC50 (EPHB4) [µM] | IC50 (Zap-70) [µM] | IC50 (IGFR-1) [µM] | Structure (SMILES) |
| --- | --- | --- | --- | --- | --- | --- |
| < 1.04 | < 1.04 | < 1.04 | 1.04 to 6.26 | > 11.7 | 1.04 to 6.26 | COc1cc(Nc2ncnc(Nc3ccc(C)c(O)c3)n2)cc(OC)c1OC [Compound 83] |
| < 1.13 | 1.13 to 6.79 | < 1.13 | 6.79 to 9.9 | > 12.7 | 1.13 to 6.79 | COc1cc(Nc2ncnc(Nc3ccccc3)n2)cc(OC)c1OC [Compound 91] |
